According to patent US20240279214A1, “ALPHA4 BETA7 INEGRIN ANTAGONISTS AND USES THEREOF” (XinThera, Inc., priority 2022, published 2024):

biological target: T1, a4b7 integrin interaction with MadCAM-1 (Homo sapiens, UniProt P13612+P26010); assay: a4b7 Cell Capture Assay (RPMI8866 cells on MAdCAM-1 Fc coated plates); type: cell-based; details: 50% human serum, 1 mM MgCl2, 1 hour incubation, CellTiter-Glo luminescence, read-out: a4B7 cell capture assay RMPI8866-MadCAM EC50
T1 construct: capture of a4b7 integrin expressing cells, RPMI8866; endogenous in cells; host or cells: RPMI8866
T1 sequence (P13612 34-1032): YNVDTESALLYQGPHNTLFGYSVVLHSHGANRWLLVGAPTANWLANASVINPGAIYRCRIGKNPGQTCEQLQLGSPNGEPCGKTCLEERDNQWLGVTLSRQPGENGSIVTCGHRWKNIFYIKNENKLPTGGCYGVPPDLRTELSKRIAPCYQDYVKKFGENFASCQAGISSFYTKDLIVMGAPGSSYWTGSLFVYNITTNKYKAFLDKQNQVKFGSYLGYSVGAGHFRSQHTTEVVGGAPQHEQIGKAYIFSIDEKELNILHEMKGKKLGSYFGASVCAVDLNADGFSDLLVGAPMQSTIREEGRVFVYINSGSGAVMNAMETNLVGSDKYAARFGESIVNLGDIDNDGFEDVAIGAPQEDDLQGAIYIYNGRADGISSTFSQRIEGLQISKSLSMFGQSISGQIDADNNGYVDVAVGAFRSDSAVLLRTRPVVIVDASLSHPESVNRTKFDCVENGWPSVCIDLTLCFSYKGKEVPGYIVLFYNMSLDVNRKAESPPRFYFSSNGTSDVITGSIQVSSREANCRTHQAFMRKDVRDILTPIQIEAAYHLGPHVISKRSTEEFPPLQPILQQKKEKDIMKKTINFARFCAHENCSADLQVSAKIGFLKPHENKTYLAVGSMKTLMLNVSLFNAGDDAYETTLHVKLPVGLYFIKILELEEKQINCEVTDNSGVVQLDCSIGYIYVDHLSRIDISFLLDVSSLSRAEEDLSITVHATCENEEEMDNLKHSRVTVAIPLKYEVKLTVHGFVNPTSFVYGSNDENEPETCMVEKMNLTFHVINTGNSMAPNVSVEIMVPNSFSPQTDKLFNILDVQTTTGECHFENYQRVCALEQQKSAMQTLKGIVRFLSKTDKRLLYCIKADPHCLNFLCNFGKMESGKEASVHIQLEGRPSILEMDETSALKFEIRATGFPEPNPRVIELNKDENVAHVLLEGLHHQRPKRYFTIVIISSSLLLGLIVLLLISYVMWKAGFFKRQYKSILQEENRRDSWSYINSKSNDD
T1 sequence (P26010 20-798): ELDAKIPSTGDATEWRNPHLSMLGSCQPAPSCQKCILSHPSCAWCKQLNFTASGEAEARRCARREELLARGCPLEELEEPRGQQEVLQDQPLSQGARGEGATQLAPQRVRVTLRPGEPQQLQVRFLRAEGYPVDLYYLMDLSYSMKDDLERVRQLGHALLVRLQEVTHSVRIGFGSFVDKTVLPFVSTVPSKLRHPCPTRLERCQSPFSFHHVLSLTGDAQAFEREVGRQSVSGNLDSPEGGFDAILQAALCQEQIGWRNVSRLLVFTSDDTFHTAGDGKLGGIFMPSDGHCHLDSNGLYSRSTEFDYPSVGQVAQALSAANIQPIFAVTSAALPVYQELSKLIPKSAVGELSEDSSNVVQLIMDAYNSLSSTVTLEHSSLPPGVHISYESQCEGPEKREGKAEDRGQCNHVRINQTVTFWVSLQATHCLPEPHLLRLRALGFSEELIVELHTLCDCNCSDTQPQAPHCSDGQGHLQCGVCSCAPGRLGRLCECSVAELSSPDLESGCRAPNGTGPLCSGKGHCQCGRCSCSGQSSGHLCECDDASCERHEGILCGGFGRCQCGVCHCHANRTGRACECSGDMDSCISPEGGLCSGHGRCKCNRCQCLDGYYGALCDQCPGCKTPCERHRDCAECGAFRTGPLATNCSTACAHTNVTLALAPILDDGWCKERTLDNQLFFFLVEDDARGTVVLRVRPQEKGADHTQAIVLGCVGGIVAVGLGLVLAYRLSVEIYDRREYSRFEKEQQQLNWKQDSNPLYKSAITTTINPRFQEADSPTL
How it was run: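 RPMI8866 cells (1.0×10^6 cells/mL) in 1 mM MgCl2, 25 mM HEPES, 50% human serum were added to plates coated with human MAdCAM-1–IgG1 Fc (1.0 μg/mL) and exposed to compound (9-point, 0.08–1000 nM, 0.1% DMSO) for 1 h at 37 °C. Bound cells were read by CellTiter-Glo luminescence. IC50 came from 4-parameter fit of normalized % inhibition.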

| SMILES | EC50 [nM] |
| --- | --- |
| Cc1cc2cc(c1F)[C@H](CC(=O)O)NC(=O)[C@@H](n1cc(CCN3CC(F)C3)c(C(F)(F)F)cc1=O)c1cc(ccc1F)Oc1cccc(C)c1-2 (relative stereo) [Example 7, [(14R*,17S)-12,19-difluoro-14-{5-[2-(3-fluoroazetidin-1-yl)ethyl]-2-oxo-4-(trifluoromethyl)pyridin-1-yl}-3,20-dimethyl-15-oxo-8-oxa-16-azatetracyclo[16.3.1.1^{9,13}.0^{2,7}]tricosa-1(21),2(7),3,5,9(23),10,12,18(22),19-nonaen-17-yl]acetic acid] | 1.1 |
| Cc1cccc2c1-c1cc(c(F)c(C(F)(F)F)c1)[C@H](CC(=O)O)NC(=O)[C@@H](n1cc(CCN3CC(F)C3)c(C(F)(F)F)cc1=O)c1cc(Cl)cc(c1)O2 (relative stereo) [Example 15, [(14R*,17S)-11-chloro-19-fluoro-14-{5-[2-(3-fluoroazetidin-1-yl)ethyl]-2-oxo-4-(trifluoromethyl)pyridin-1-yl}-3-methyl-15-oxo-20-(trifluoromethyl)-8-oxa-16-azatetracyclo[16.3.1.1^{9,13}.0^{2,7}]tricosa-1(22),2(7),3,5,9,11,13(23),18,20-nonaen-17-yl]acetic acid] | 28 |
| Cc1cc(C2CC2)cc2c1-c1cc(c(F)c(C(F)(F)F)c1)[C@H](CC(=O)O)NC(=O)[C@@H](n1cc(CCN3CC(F)C3)c(C(F)(F)F)cc1=O)c1cccc(c1)O2 (relative stereo) [Example 10, [(14R*,17S)-5-cyclopropyl-19-fluoro-14-{5-[2-(3-fluoroazetidin-1-yl)ethyl]-2-oxo-4-(trifluoromethyl)pyridin-1-yl}-3-methyl-15-oxo-20-(trifluoromethyl)-8-oxa-16-azatetracyclo[16.3.1.1^{9,13}.0^{2,7}]tricosa-1(21),2(7),3,5,9,11,13(23),18(22),19-nonaen-17-yl]acetic acid] | 360 |
| Cc1cc2cc(c1F)[C@H](CC(=O)O)NC(=O)[C@@H](n1cc(CCN3CC(F)C3)c(C(F)(F)F)cc1=O)c1cccc(c1)Oc1cccc(C)c1-2 (relative stereo) [Example 1, rel-2-((5S,8S)-1^4-fluoro-5-(5-(2-(3-fluoroazetidin-1-yl)ethyl)-2-oxo-4-(trifluoromethyl)pyridin-1(2H)-yl)-1^5,2^6-dimethyl-6-oxo-3-oxa-7-aza-1,4(1,3),2(1,2)-tribenzenacyclooctaphane-8-yl)acetic acid] | 59 |
| Cc1cc(Cl)cc2c1-c1cc(c(F)c(C(F)(F)F)c1)[C@H](CC(=O)O)NC(=O)[C@@H](n1cc(CCN3CC(F)C3)c(C(F)(F)F)cc1=O)c1cccc(c1)O2 (single isomer, unassigned) [Example 11] | 340 |
| Cc1cc2cc(c1F)[C@H](CC(=O)O)NC(=O)[C@@H](n1cc(CCN3CC(F)C3)c(C(F)(F)F)cc1=O)c1cc(Cl)cc(c1)Oc1cccc(C)c1-2 (single isomer, unassigned) [Example 3] | 12 |
| Cc1cc(C)c2c(c1)Oc1cccc(c1)[C@H](n1cc(CCCN(C)C)c(C(F)(F)F)cc1=O)C(=O)N[C@@H](CC(=O)O)c1cn-2nc1C(F)(F)F (relative stereo) [Example 18, [(13S,16R*)-16-{5-[3-(dimethylamino)propyl]-2-oxo-4-(trifluoromethyl)pyridin-1-yl}-5,7-dimethyl-15-oxo-11-(trifluoromethyl)-2-oxa-9,10,14-triazatetracyclo[15.3.1.1^{9,12}.0^{3,8}]docosa-1(20),3(8),4,6,10,12(22),17(21),18-octaen-13-yl]acetic acid] | 9.2 |
